The structures appear in SMILES notation.

In general, Ki refers to a measure of affinity in units of concentration, obtained from inhibition or displacement. Higher therefore signals a looser hold on the target.

One assay in a line: Compound was tested for binding affinity against delta opioid receptor in guinea pig brain membrane using [3H]EK as the radioligand.
For `CN1CC[C@]23c4c5ccc(O)c4O[C@@H]2[C@H](NC(=O)CNC(=O)CNC(=O)CCC(=O)NCC(=O)NCC(=O)N[C@@H]2CC[C@]4(O)[C@H]6Cc7ccc(O)c8c7[C@@]4(CCN6C)[C@@H]2O8)CC[C@]3(O)[C@H]1C5` [1N,4N-di[10,17-dihydroxy-4-methyl-(13S,14R,17R)-12-oxa-4-azapentacyclo[9.6.1.01,13.05,17.07,18]octadeca-7(18),8,10-trien-14-ylcarbamoylmethylcarbamoylmethyl]succinamide], the Ki worked out at 27 nM.

Another assay is described as follows: Displacement of [3H]EK from Opioid receptor delta 1 in guinea pig brain membrane.
Regarding `CN1CC[C@]23c4c5ccc(O)c4O[C@H]2[C@@H](NC(=O)CNC(=O)CNC(=O)CCC(=O)NCC(=O)NCC(=O)N[C@H]2CC[C@@]4(O)[C@H]6Cc7ccc(O)c8c7[C@@]4(CCN6C)[C@H]2O8)CC[C@@]3(O)[C@H]1C5` [1N,4N-di[10,17-dihydroxy-4-methyl-(13R,14S,17S)-12-oxa-4-azapentacyclo[9.6.1.01,13.05,17.07,18]octadeca-7(18),8,10-trien-14-ylcarbamoylmethylcarbamoylmethylcarbamoylmethyl]succinamide], the Ki is 50 nM. Turning to `O=C(CCC(=O)NCC(=O)NCC(=O)NCC(=O)N[C@@H]1CC[C@@]2(O)[C@H]3Cc4ccc(O)c5c4[C@@]2(CCN3CC2CC2)[C@H]1O5)NCC(=O)NCC(=O)NCC(=O)N[C@@H]1CC[C@@]2(O)[C@H]3Cc4ccc(O)c5c4[C@@]2(CCN3CC2CC2)[C@H]1O5` [1N,4N-di[4-cyclopropylmethyl-10,17-dihydroxy-(13R,14R,17S)-12-oxa-4-azapentacyclo[9.6.1.01,13.05,17.07,18]octadeca-7(18),8,10-trien-14-ylcarbamoylmethylcarbamoylmethylcarbamoylmethyl]succinamide], the Ki stood at 6.4 nM.

Turning to `CN1CC[C@]23c4c5ccc(O)c4O[C@@H]2[C@H](NC(=O)CCC(=O)N[C@@H]2CC[C@]4(O)[C@H]6Cc7ccc(O)c8c7[C@@]4(CCN6C)[C@@H]2O8)CC[C@]3(O)[C@H]1C5` [1N,4N-di[10,17-dihydroxy-4-methyl-(13R,14S,17S)-12-oxa-4-azapentacyclo[9.6.1.01,13.05,17.07,18]octadeca-7(18),8,10-trien-14-yl]succinamide], the Ki was found to be 200 nM. Still for that read-out and setting: the same measure for `CN1CC[C@]23c4c5ccc(O)c4O[C@@H]2[C@H](NC(=O)CNC(=O)CNC(=O)CNC(=O)CCC(=O)NCC(=O)NCC(=O)NCC(=O)N[C@@H]2CC[C@]4(O)[C@H]6Cc7ccc(O)c8c7[C@@]4(CCN6C)[C@@H]2O8)CC[C@]3(O)[C@H]1C5` [1N,4N-di[10,17-dihydroxy-4-methyl-(13R,14S,17S)-12-oxa-4-azapentacyclo[9.6.1.01,13.05,17.07,18]octadeca-7(18),8,10-trien-14-ylcarbamoylmethylcarbamoylmethyl]succinamide]: 42 nM. Same read-out and setting: for `O=C(CCC(=O)NCC(=O)NCC(=O)N[C@@H]1CC[C@@]2(O)[C@H]3Cc4ccc(O)c5c4[C@@]2(CCN3CC2CC2)[C@H]1O5)NCC(=O)NCC(=O)N[C@@H]1CC[C@@]2(O)[C@H]3Cc4ccc(O)c5c4[C@@]2(CCN3CC2CC2)[C@H]1O5` [1N,4N-di[4-cyclopropylmethyl-10,17-dihydroxy-(13R,14R,17S)-12-oxa-4-azapentacyclo[9.6.1.01,13.05,17.07,18]octadeca-7(18),8,10-trien-14-ylcarbamoylmethylcarbamoylmethyl]succinamide] the value was 4.9 nM; for `O=C(CCC(=O)NCC(=O)N[C@@H]1CC[C@@]2(O)[C@H]3Cc4ccc(O)c5c4[C@@]2(CCN3CC2CC2)[C@H]1O5)NCC(=O)N[C@@H]1CC[C@@]2(O)[C@H]3Cc4ccc(O)c5c4[C@@]2(CCN3CC2CC2)[C@H]1O5` [1N,4N-di[4-cyclopropylmethyl-10,17-dihydroxy-(13R,14R,17S)-12-oxa-4-azapentacyclo[9.6.1.01,13.05,17.07,18]octadeca-7(18),8,10-trien-14-ylcarbamoylmethyl]succinamide], 7.8 nM. The same measure, in the same setting: the same measure for `CN1CC[C@]23c4c5ccc(O)c4O[C@@H]2[C@H](NC(=O)CNC(=O)CCC(=O)NCC(=O)N[C@@H]2CC[C@]4(O)[C@H]6Cc7ccc(O)c8c7[C@@]4(CCN6C)[C@@H]2O8)CC[C@]3(O)[C@H]1C5` [1N,4N-di[10,17-dihydroxy-4-methyl-(13R,14S,17S)-12-oxa-4-azapentacyclo[9.6.1.01,13.05,17.07,18]octadeca-7(18),8,10-trien-14-ylcarbamoylmethyl]succinamide]: 86 nM. `O=C(CCC(=O)N[C@@H]1CC[C@@]2(O)[C@H]3Cc4ccc(O)c5c4[C@@]2(CCN3CC2CC2)[C@H]1O5)N[C@@H]1CC[C@@]2(O)[C@H]3Cc4ccc(O)c5c4[C@@]2(CCN3CC2CC2)[C@H]1O5` [1N,4N-di[4-cyclopropylmethyl-10,17-dihydroxy-(13R,14R,17S)-12-oxa-4-azapentacyclo[9.6.1.01,13.05,17.07,18]octadeca-7(18),8,10-trien-14-yl]succinamide] returned a Ki of 12 nM. This Ki is about 7.2-fold lower than that of the molecule before.

For the origin of these results see BindingDB's records for doi:10.1021/jm00160a010 (1986).
